# PubChem BioAssay AID2060504 (Molecular Pharmacology Branch, DTP, NCI, 2025)
# Tested on: 636577-100-R-J1-PDC complex spheroid viability
# Experiment: Anticancer human tumor 636577-100-R-J1-PDC patient-derived endometrial adenocarcinoma cell line growth inhibition [GQUAD]
# Details: for IC50: curve of first compound; for viability, T/C: stronger effect = lower value
# Outline: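 Multi-cell-type spheroids of tumor cells with HUVEC and mesenchymal stem cells, treated with drug combinations. Concentrations descend in half-log steps from near clinical Cmax, or from 10 microM where Cmax is unknown; viability read-out.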
# [1] = second compound 0.0316 µM, first compound 0.0316 µM
# [2] = second compound 0.0316 µM, first compound 0.1 µM
# [3] = second compound 0.0316 µM, first compound 0.316 µM
# [4] = second compound 0.0316 µM, first compound 1 µM
# [5] = second compound 0.0316 µM, first compound 3.16 µM
# [6] = second compound 0.0316 µM, first compound 10 µM
# [7] = second compound 0.1 µM, first compound 0.0316 µM
# [8] = second compound 0.1 µM, first compound 0.1 µM
# [9] = second compound 0.1 µM, first compound 0.316 µM
# [10] = second compound 0.1 µM, first compound 1 µM
# [11] = second compound 0.1 µM, first compound 3.16 µM
# [12] = second compound 0.1 µM, first compound 10 µM
# [13] = second compound 0.316 µM, first compound 0.0316 µM
# [14] = second compound 0.316 µM, first compound 0.1 µM
# [15] = second compound 0.316 µM, first compound 0.316 µM
# [16] = second compound 0.316 µM, first compound 1 µM
# [17] = second compound 0.316 µM, first compound 3.16 µM
# [18] = second compound 0.316 µM, first compound 10 µM
# [19] = second compound 1 µM, first compound 0.0316 µM
# [20] = second compound 1 µM, first compound 0.1 µM
# [21] = second compound 1 µM, first compound 0.316 µM
# [22] = second compound 1 µM, first compound 1 µM
# [23] = second compound 1 µM, first compound 3.16 µM
# [24] = second compound 1 µM, first compound 10 µM
# [25] = second compound 3.16 µM, first compound 0.0316 µM
# [26] = second compound 3.16 µM, first compound 0.1 µM
# [27] = second compound 3.16 µM, first compound 0.316 µM
# [28] = second compound 3.16 µM, first compound 1 µM
# [29] = second compound 3.16 µM, first compound 3.16 µM
# [30] = second compound 3.16 µM, first compound 10 µM
# [31] = second compound 10 µM, first compound 0.0316 µM
# [32] = second compound 10 µM, first compound 0.1 µM
# [33] = second compound 10 µM, first compound 0.316 µM
# [34] = second compound 10 µM, first compound 1 µM
# [35] = second compound 10 µM, first compound 3.16 µM
# [36] = second compound 10 µM, first compound 10 µM
# 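Further: viability read after seven days of drug exposure.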
# 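Wherever viability, T/C is given: luminescence signal used as a proxy for viable cells; 100% = DMSO vehicle control wells.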
smiles,measurement,setting,value
COc1cccc2c1C(=O)c1c(O)c3c(c(O)c1C2=O)CC(O)(C(=O)CO)CC3OC1CC(N)C(O)C(C)O1 (stereo not drawn) + CN(C)c1ccc(Nc2c3ccc(NC(=O)CCN4CCCC4)cc3nc3cc(NC(=O)CCN4CCCC4)ccc23)cc1,IC50,second compound 0.0316 µM,< 0.0316 µM
same,IC50,second compound 0.1 µM,< 0.0316 µM
same,IC50,second compound 0.316 µM,< 0.0316 µM
same,IC50,second compound 1 µM,< 0.0316 µM
same,IC50,second compound 3.16 µM,< 0.0316 µM
same,IC50,second compound 10 µM,< 0.0316 µM
same,"viability, T/C",[1],28%
same,"viability, T/C",[2],17.2%
same,"viability, T/C",[3],15.3%
same,"viability, T/C",[4],7.48%
same,"viability, T/C",[5],0.17%
same,"viability, T/C",[6],0.58%
same,"viability, T/C",[7],27.2%
same,"viability, T/C",[8],15.9%
same,"viability, T/C",[9],15.3%
same,"viability, T/C",[10],7.46%
same,"viability, T/C",[11],0.12%
same,"viability, T/C",[12],0.61%
same,"viability, T/C",[13],28%
same,"viability, T/C",[14],18.6%
same,"viability, T/C",[15],12.9%
same,"viability, T/C",[16],7.67%
same,"viability, T/C",[17],0.2%
same,"viability, T/C",[18],0.5%
same,"viability, T/C",[19],25%
same,"viability, T/C",[20],18.6%
same,"viability, T/C",[21],13.3%
same,"viability, T/C",[22],7.58%
same,"viability, T/C",[23],0.13%
same,"viability, T/C",[24],0.47%
same,"viability, T/C",[25],19.4%
same,"viability, T/C",[26],17.2%
same,"viability, T/C",[27],10.8%
same,"viability, T/C",[28],3.65%
same,"viability, T/C",[29],0.16%
same,"viability, T/C",[30],0.34%
same,"viability, T/C",[31],4.99%
same,"viability, T/C",[32],3.27%
same,"viability, T/C",[33],1.84%
same,"viability, T/C",[34],0.34%
same,"viability, T/C",[35],0.19%
same,"viability, T/C",[36],0.27%
Cc1cccc(N(C)C(=O)C2C(O)CCN2c2nc(C)cc(C(F)(F)F)c2C#N)c1 (stereo not drawn) + CN(C)c1ccc(Nc2c3ccc(NC(=O)CCN4CCCC4)cc3nc3cc(NC(=O)CCN4CCCC4)ccc23)cc1,IC50,second compound 0.0316 µM,> 10 µM
same,IC50,second compound 0.1 µM,> 10 µM
same,IC50,second compound 0.316 µM,> 10 µM
same,IC50,second compound 1 µM,> 10 µM
same,IC50,second compound 3.16 µM,< 0.0316 µM
same,IC50,second compound 10 µM,< 0.0316 µM
same,"viability, T/C",[1],78%
same,"viability, T/C",[2],78.9%
same,"viability, T/C",[3],97.2%
same,"viability, T/C",[4],102%
same,"viability, T/C",[5],92.1%
same,"viability, T/C",[6],86%
same,"viability, T/C",[7],105%
same,"viability, T/C",[8],73.6%
same,"viability, T/C",[9],89.7%
same,"viability, T/C",[10],92.8%
same,"viability, T/C",[11],92.8%
same,"viability, T/C",[12],82.9%
same,"viability, T/C",[13],80.6%
same,"viability, T/C",[14],79.7%
same,"viability, T/C",[15],91.3%
same,"viability, T/C",[16],88.5%
same,"viability, T/C",[17],96.9%
same,"viability, T/C",[18],78.3%
same,"viability, T/C",[19],78.1%
same,"viability, T/C",[20],87.2%
same,"viability, T/C",[21],78.6%
same,"viability, T/C",[22],71.5%
same,"viability, T/C",[23],76.4%
same,"viability, T/C",[24],57.4%
same,"viability, T/C",[25],34.9%
same,"viability, T/C",[26],47.4%
same,"viability, T/C",[27],45.8%
same,"viability, T/C",[28],31.6%
same,"viability, T/C",[29],30.1%
same,"viability, T/C",[30],27.2%
same,"viability, T/C",[31],7.75%
same,"viability, T/C",[32],6.99%
same,"viability, T/C",[33],4.7%
same,"viability, T/C",[34],4.67%
same,"viability, T/C",[35],2.93%
same,"viability, T/C",[36],0.73%
Cc1cccc(N(C)C(=O)C2C(O)CCN2c2nc(C)cc(C(F)(F)F)c2C#N)c1 (stereo not drawn) + Cc1cnc(CNC(=O)c2c(=O)c3ccc(N4CCCN(C)CC4)nc3n3c2sc2ccccc23)cn1,IC50,second compound 0.0316 µM,< 0.0316 µM
same,IC50,second compound 0.1 µM,< 0.0316 µM
same,IC50,second compound 0.316 µM,< 0.0316 µM
same,IC50,second compound 1 µM,< 0.0316 µM
same,IC50,second compound 3.16 µM,< 0.0316 µM
same,IC50,second compound 10 µM,< 0.0316 µM
same,"viability, T/C",[1],52.7%
same,"viability, T/C",[2],43.5%
same,"viability, T/C",[3],35%
same,"viability, T/C",[4],39.7%
same,"viability, T/C",[5],40.5%
same,"viability, T/C",[6],43.9%
same,"viability, T/C",[7],29.2%
same,"viability, T/C",[8],22.6%
same,"viability, T/C",[9],25.3%
same,"viability, T/C",[10],23.2%
same,"viability, T/C",[11],25.7%
same,"viability, T/C",[12],24.6%
same,"viability, T/C",[13],21.8%
same,"viability, T/C",[14],18.1%
same,"viability, T/C",[15],21.6%
same,"viability, T/C",[16],21.6%
same,"viability, T/C",[17],24.2%
same,"viability, T/C",[18],22.7%
same,"viability, T/C",[19],19.1%
same,"viability, T/C",[20],19.7%
same,"viability, T/C",[21],19.7%
same,"viability, T/C",[22],19.2%
same,"viability, T/C",[23],20.8%
same,"viability, T/C",[24],25.2%
same,"viability, T/C",[25],12.5%
same,"viability, T/C",[26],19.6%
same,"viability, T/C",[27],19.4%
same,"viability, T/C",[28],21%
same,"viability, T/C",[29],22.4%
same,"viability, T/C",[30],20.7%
same,"viability, T/C",[31],22.3%
same,"viability, T/C",[32],17.8%
same,"viability, T/C",[33],21%
same,"viability, T/C",[34],17.9%
same,"viability, T/C",[35],22.9%
same,"viability, T/C",[36],20.8%
Nc1ccn(C2OC(CO)C(O)C2(F)F)c(=O)n1 (stereo not drawn) + CN(C)c1ccc(Nc2c3ccc(NC(=O)CCN4CCCC4)cc3nc3cc(NC(=O)CCN4CCCC4)ccc23)cc1,IC50,second compound 0.0316 µM,< 0.0316 µM
same,IC50,second compound 0.1 µM,< 0.0316 µM
same,IC50,second compound 0.316 µM,< 0.0316 µM
same,IC50,second compound 1 µM,< 0.0316 µM
same,IC50,second compound 3.16 µM,< 0.0316 µM
same,IC50,second compound 10 µM,< 0.0316 µM
same,"viability, T/C",[1],17.7%
same,"viability, T/C",[2],13.4%
same,"viability, T/C",[3],14.6%
same,"viability, T/C",[4],17.2%
same,"viability, T/C",[5],16.4%
same,"viability, T/C",[6],15.8%
same,"viability, T/C",[7],17.7%
same,"viability, T/C",[8],14.2%
same,"viability, T/C",[9],14.9%
same,"viability, T/C",[10],14.3%
same,"viability, T/C",[11],14.5%
same,"viability, T/C",[12],18.5%
same,"viability, T/C",[13],16.9%
same,"viability, T/C",[14],11.2%
same,"viability, T/C",[15],14.2%
same,"viability, T/C",[16],17.4%
same,"viability, T/C",[17],16.4%
same,"viability, T/C",[18],15.6%
same,"viability, T/C",[19],15.9%
same,"viability, T/C",[20],16.7%
same,"viability, T/C",[21],15.2%
same,"viability, T/C",[22],17.8%
same,"viability, T/C",[23],16.5%
same,"viability, T/C",[24],17.1%
same,"viability, T/C",[25],16.6%
same,"viability, T/C",[26],13.9%
same,"viability, T/C",[27],15.2%
same,"viability, T/C",[28],14.8%
same,"viability, T/C",[29],16.3%
same,"viability, T/C",[30],14.5%
same,"viability, T/C",[31],3.38%
same,"viability, T/C",[32],3.05%
same,"viability, T/C",[33],4%
same,"viability, T/C",[34],3.42%
same,"viability, T/C",[35],3.65%
same,"viability, T/C",[36],3.14%
